Test [1] concerns the target T1, BRD4(1) (Homo sapiens, UniProt O60885). Nature of the test: BRD4(1) biochemical alphascreen assay (disruption of BRD4(1) binding to acetylated biotin-histone 4 peptide). Also on record: BRD4-BD1 (49–170, BPS Bio #31042) was stored at −80 °C; purchased BPS Bio 31042. The following applies: for IC50: alpha screen, average, 9 concentrations in triplicate (n = 3), read-out: IC50 against BRD4(1). The text has this: After searching multiple commercial providers for the top 108 compounds, Enamine LLC (http://www.enamine.net/) provided 24 compounds comprising 5 chemical scaffolds including substituted 2-pyrrolidinones, quinazolin-4-amines, thienopyrimidin-4-amines, and imidazolidinones (Supplementary Table 2). […] As illustrated, several compounds have confirmed activity against BRD4(1) and one compound, Z118332870 (2870), is active against BRD4 and EGFR kinase. Compounds that were not confirmed BRD4(1) actives were not tested in the EGFR assay because we were primarily interested in novel dual BRD4 and EGFR inhibitors. To evaluate small molecule BRD4 bromodomain binding, we utilized a biochemical alphascreen assay that measured disruption of BRD4(1) binding to pre-acetylated biotin-histone 4 peptide by proximity detection of the conjugated donor and acceptor beads via transient singlet oxygen. […] To validate results, a counter-screen assay (see Methods for details) was performed to ensure that compounds were not interacting with assay components other than recombinant BRD4(1) (Supplementary Figure 3).
The BRD4(1) alpha screen assay was performed with a pre-acetylated Biotin-Histone 4 Peptide [H4K5/8/12/16(Ac)] 1 – 21 (AnaSpec #64989-025, 0.25 mg). A 200 μM stock was made and stored at −80 °C. BRD4-BD1 (49–170, BPS Bio #31042) was stored at −80 °C at a concentration of 50 μM. All compounds used in assays were kept in a 10 mM stock at −80 °C, with I-BET151 being used as a control. The assay buffer contained 50 mM HEPES, 100 mM NaCl, and 0.1% BSA at a pH of 7.4, and was stored at 4 °C. 10% CHAPS (Sigma C3023) was added to the assay buffer before each experiment and was stored at room temperature.
Before use, assay buffer was equilibrated to room temperature and supplemented with 0.05% CHAPS. 3X His-BRD4-BD1 was diluted in assay buffer to 600 nM with a final concentration of 200 nM in a 12 μl reaction volume. 4 μl per well of 3X His-BRD4-BD1 was added to an OptiPlate-384 (Perkin Elmer #6007290) covered with Top Seal-A Film (Perkin Elmer #6005250) and pulsed at 900 × g. 3X BRD Inhibitors or DMSO vehicle was prepared in Assay Buffer starting at 300 μM and diluting 3X to 46 nM. 4 μl of buffer (positive control), 3X DMSO Vehicle, or 3X BRD Inhibitor (I-BET151 as control) were added to each well, sealed with Top Seal-A film and pulsed at 900 × g. The plate was then incubated at room temperature for 30 minutes. 3X Biotin-H4K4Ac was prepared by diluting stock in Assay Buffer to 600 nM, with a final concentration of 200 nM in a 12 μl reaction volume. 4 μl of Biotin-H4K4Ac was added per well, sealed and pulsed at 900 × g. The plate was then incubated at room temperature for another 30 minutes. AlphaLISA Nickel Chelate Acceptor Beads (Perkin Elmer #1547780, 5 mg/ml, 4 °C) and AlphaScreen Streptavidin Donor Beads (Perkin Elmer #6760002, 5 mg/ml, 4 °C) were prepared at 2.5X by diluting in Assay Buffer to 25 μg/ml with a final concentration of each bead equaling 10 μg/ml in a 20 μl reaction volume. 8 μl per well of Donor and Acceptor beads were added in the dark to each well, sealed, wrapped with foil to protect from light, and pulsed at 900 × g. The plate was then incubated at room temperature for 60 minutes and read on an EnVision instrument using Alpha Mode (680 excitiation/615 emission/read signal). Dose response curves were obtained and interpreted using GraphPad Prism software for curve fitting to obtain IC50 values. […]

The next test addresses ERBB2 (Homo sapiens, UniProt P04626). The test can be described thus: Kinase activity enzyme profiling, ERBB2. Format: biochemical.
A further test has as its target ERBB4 (Homo sapiens, UniProt Q15303). Nature of the test: Kinase activity enzyme profiling, ERBB4. The format is biochemical.
Test [2] has as its target T1, BRD4(1). The test can be described thus: Differential scanning fluorimetry (DSF) with BRD4(1). More on the design: Bromodomain 1 (BRD4(1)) and Bromodomain 2 (BRD4(2)). The format is binding. The method, then: The inhibitory activity of compound Z118332870 (2870) against BRD4(1) was assessed by DSF using a StepOnePlus Real-Time PCR system (Applied Biosystems). Purified BRD4(1) (4 μM final concentration; 10 mM HEPES (pH 7.5), 100 mM NaCl, and 1 mM DTT) was assayed, in triplicates, in a 96-well plate. Compound was added to a final concentration of 100 μM and 2% DMSO. Protein Thermal Shift Dye (1:8000; Applied Biosystems) was used as the fluorescent probe and fluorescence was measured using the ROX Reporter channel (620 nm). Protein stability was investigated by programing the thermocycler to increase the temperature from 25 °C to 99 °C using 0.2 °C increments and 10 second incubations per increment. The inflection point of the transition curve/melting temperature (Tm) was calculated using the Boltzmann equation within the Protein Thermal Shift Software (v.1.1) (Applied Biosystems). The ΔTm was calculated by using DMSO control wells as a reference.

Another test concerns the target EGFR (ERBB1) (Homo sapiens, UniProt P00533). Nature of the test: EGFR kinase activity enzyme assay (radioisotope filter binding, hotspot). Format: biochemical.

Values joined by “and” are separate entries in the source; they are usually repeats but may differ in a detail not shown here. Equal values may be shown once. Read-outs that look alike come from different tables or passages of the source.

Sequence of ERBB4 (Q15303 26-1308): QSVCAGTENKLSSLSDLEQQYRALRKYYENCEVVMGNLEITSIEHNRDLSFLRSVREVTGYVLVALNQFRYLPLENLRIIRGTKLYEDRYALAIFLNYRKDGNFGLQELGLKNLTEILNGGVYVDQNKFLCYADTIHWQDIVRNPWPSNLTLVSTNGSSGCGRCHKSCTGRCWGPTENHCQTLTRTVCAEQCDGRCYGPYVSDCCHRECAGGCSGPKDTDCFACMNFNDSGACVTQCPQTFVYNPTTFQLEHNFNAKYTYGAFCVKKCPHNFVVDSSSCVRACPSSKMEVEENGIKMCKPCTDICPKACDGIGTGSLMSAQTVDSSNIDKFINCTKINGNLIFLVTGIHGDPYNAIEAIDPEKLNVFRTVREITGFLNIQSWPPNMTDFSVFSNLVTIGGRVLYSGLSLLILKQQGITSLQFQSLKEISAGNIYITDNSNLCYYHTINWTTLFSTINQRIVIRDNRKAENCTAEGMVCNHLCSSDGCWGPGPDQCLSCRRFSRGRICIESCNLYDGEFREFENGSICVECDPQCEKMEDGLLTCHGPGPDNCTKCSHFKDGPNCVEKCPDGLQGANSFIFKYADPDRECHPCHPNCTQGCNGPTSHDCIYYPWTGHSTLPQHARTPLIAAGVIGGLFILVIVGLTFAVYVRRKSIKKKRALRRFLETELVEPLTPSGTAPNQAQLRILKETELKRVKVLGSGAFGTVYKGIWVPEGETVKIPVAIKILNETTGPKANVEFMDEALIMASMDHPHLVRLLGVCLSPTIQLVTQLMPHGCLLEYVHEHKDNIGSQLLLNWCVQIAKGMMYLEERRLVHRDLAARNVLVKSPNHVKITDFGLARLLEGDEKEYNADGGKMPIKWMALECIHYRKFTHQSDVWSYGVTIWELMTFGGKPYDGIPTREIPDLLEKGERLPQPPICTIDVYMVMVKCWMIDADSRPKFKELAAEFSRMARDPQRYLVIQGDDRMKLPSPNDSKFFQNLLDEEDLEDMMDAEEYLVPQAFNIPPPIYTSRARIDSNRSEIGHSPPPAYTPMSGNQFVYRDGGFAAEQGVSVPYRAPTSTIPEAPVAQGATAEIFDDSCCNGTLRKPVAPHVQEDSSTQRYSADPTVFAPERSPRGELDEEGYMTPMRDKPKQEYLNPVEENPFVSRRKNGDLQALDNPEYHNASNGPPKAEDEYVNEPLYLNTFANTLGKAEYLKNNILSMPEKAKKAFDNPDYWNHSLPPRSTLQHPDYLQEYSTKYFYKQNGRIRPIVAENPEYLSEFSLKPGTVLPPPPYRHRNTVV
Sequence of EGFR (ERBB1) (P00533 25-1210): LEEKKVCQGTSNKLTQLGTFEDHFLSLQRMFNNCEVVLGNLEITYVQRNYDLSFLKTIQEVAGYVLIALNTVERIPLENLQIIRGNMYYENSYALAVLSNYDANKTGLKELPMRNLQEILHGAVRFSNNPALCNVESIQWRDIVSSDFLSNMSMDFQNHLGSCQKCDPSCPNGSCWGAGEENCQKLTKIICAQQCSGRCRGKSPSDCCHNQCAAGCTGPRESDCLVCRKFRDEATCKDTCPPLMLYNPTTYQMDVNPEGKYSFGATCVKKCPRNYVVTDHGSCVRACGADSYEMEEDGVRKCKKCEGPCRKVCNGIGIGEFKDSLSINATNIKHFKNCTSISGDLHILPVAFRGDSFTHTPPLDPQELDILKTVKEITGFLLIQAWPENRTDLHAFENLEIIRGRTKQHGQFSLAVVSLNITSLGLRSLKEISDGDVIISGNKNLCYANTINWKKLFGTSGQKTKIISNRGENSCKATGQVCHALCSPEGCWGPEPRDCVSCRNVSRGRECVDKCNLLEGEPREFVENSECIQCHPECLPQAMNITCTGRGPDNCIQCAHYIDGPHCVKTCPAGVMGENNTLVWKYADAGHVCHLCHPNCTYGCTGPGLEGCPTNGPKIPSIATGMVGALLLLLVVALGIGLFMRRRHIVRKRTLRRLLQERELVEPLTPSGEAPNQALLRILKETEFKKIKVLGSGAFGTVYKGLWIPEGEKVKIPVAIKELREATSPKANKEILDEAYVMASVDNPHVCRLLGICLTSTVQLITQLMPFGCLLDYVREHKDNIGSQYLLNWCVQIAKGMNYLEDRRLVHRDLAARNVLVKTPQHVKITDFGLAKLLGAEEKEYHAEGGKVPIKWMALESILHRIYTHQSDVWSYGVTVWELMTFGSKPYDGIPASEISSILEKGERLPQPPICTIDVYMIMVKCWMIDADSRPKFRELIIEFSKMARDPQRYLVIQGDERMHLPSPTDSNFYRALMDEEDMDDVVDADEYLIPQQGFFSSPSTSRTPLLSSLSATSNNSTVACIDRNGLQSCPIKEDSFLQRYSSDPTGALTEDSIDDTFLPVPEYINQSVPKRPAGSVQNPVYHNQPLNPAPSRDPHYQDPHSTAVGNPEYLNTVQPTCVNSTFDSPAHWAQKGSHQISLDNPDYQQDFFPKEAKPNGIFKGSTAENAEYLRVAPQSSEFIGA
Sequence of ERBB2 (P04626 23-1255): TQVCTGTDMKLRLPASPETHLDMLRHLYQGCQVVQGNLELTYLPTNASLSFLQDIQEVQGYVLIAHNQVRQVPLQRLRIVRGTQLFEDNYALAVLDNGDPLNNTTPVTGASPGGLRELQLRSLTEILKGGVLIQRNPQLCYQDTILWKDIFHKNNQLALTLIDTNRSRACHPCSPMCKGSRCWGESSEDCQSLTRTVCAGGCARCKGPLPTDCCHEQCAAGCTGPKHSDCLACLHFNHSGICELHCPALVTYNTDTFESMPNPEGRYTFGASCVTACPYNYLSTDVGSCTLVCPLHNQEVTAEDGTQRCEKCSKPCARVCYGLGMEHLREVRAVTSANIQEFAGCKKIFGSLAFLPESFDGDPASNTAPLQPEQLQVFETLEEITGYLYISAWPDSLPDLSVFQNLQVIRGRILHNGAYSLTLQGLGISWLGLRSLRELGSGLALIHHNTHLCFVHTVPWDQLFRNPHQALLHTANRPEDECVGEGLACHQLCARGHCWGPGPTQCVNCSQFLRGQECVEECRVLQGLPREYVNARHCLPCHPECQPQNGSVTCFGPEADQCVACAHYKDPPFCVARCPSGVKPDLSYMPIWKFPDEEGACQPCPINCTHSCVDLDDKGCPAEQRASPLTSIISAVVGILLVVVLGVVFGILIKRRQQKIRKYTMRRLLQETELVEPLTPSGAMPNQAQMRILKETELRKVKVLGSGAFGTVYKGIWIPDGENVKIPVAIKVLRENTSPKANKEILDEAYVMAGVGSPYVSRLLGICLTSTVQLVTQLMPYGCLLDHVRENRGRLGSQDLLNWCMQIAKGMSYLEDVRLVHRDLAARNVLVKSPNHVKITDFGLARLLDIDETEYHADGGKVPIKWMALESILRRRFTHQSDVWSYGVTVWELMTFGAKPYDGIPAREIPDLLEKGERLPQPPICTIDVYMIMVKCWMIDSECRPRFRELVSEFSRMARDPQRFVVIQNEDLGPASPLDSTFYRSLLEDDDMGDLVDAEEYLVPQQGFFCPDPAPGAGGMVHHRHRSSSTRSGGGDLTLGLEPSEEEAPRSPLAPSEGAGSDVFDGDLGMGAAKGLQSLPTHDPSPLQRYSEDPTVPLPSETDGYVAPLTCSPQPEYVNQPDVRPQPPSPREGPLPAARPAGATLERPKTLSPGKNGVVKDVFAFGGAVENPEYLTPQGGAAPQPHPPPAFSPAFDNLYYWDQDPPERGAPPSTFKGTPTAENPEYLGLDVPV
Procedure for EGFR (ERBB1): A radioisotope filter binding method was used in the EGFR kinase hotspot assay, performed by the Reaction Biology Corporation, LLC. The base reaction buffer was composed of 20 mM HEPES (pH 7.5); 10 mM MgCl2, 1 mM EGTA, 0.02% Brij35, 0.02 mg/mL BSA, 0.1 mM Na3VO4, 2 mM DTT, and 1% DMSO. The substrate was freshly prepared using the base reaction buffer. Kinase was added into the substrate solution at a concentration of 10 μM and gently mixed. Compounds were then added into the kinase reaction mixture. At this point, the ^33P-ATP was added into the reaction mixture to initiate the reaction. The reaction was incubated for 120 minutes at room temperature. After completion, reactions were spotted onto P81 ion exchange paper (Whatman #3698-915). Filters were then washed extensively in 0.75% Phosphoric acid and a scintillation counter was used to quantify the amount of radioactivity on the filter.

For the compound `c1nc(NCCCN2CCOCC2)c2c3c(sc2n1)CCC3` [compound 0012], on BRD4(1) [1], the “activity in BRD4(1) alphascreen assay (in words)” value (shortened to “activity”) is given as “Confirmed active” and the IC50 worked out at 17 µM.

Consider `COc1cc2ncnc(NCCOc3ccccc3F)c2cc1OC` [compound 2870], for which the “activity” value at BRD4(1) [1] is given as “Confirmed active”. In addition, the IC50 was 9 µM and 9.02 µM at BRD4(1) [1]; 8.73 µM at ERBB2 (kinase activity enzyme profiling, read-out: IC50 against ERBB2); 24.2 µM on ERBB4 (kinase activity enzyme profiling, read-out: IC50 against ERBB4); 9.1 µM on BRD4(1) [2] (corresponds to ΔTm based on the standard curve, read-out: predicted IC50 from DSF standard curve); 0.0442 µM at EGFR (ERBB1) (kinase enzyme activity assay, read-out: IC50 against EGFR); 0.044 µM at EGFR (ERBB1) (radioisotope filter binding assay, substrate concentration 10 μM, n = 3, read-out: IC50 against EGFR kinase). The “selectivity for EGFR over ERBB2” value on ERBB2 (EGFR vs ERBB2 IC50) is “about 200 fold”. The “selectivity for EGFR over ERBB4” value on ERBB4 (EGFR vs ERBB4 IC50) is listed as 500 fold. Further, the ΔTm at 100 µM on BRD4(1) [2] (DSF, compound 100 μM, BRD4(1) 4 μM, relative to DMSO) came out at 1.15 °C.

With `COc1ccc(Br)cc1S(=O)(=O)Nc1cccc(N2CCCC2=O)c1` [compound 8302], at BRD4(1) [1], the “activity” value is reported as “Confirmed active”.

The values above are taken from paper PMC4657038, “Large-Scale Computational Screening Identifies First in Class Multitarget Inhibitor of EGFR Kinase and BRD4” (Scientific Reports, 2015).
